From US11618746B2, “Inhibitors of APOL1 and methods of using same” (Vertex Pharmaceuticals Incorporated, priority 2018, dated 2023)

What follows are compounds tested against T1, APOL1 G1 Protein (Homo sapiens, UniProt O14791, I384M/S342G) (assay: Trypanosoma brucei brucei lysis assay using APOL1 recombinant protein (AlamarBlue viability readout)). Settings: Trypanosoma brucei brucei (Lister 427 VSG 221 bloodstream form) lysis by 0.05 μg/mL recombinant APOL1 G1, 16 hrs.
T1 sequence (O14791 28-398 S342G/I384M): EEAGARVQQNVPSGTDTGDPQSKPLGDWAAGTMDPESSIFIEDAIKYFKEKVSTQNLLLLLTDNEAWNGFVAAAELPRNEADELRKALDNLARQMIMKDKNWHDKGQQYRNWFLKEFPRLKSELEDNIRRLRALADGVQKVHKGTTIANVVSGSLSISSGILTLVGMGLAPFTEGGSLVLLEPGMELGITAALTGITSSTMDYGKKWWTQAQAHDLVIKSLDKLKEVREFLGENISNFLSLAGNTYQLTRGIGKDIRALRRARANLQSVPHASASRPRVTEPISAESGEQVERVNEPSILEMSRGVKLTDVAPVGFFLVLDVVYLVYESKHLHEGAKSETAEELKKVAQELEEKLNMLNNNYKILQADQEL
Type: cell-based
Description: Trypanosoma brucei brucei is a blood stream parasite to which human, gorillas and baboon are immune due to the presence of the APOL1 protein in their HDL particles. The protein is uptaken by the parasite via the TbHpHb receptor located in its flagellar pocket and is bonded by the Hpr protein contained in the HDL particles which triggers the receptor endocytosis by the parasite.
Following endocytosis, the formed vesicle containing the HDL particle matures from early to late endosome, and subsequently to lysosome. The concomitant pH change in the lumen of the vesicle triggers the insertion of the APOL1 protein into the membrane of the late endosome/lysosome and hereby triggers lysosomal membrane premeabilisation and as a further downstream event, trypanosome lysis. Trypanosoma brucei brucei is sensitive to lysis by all three APOL1 variants (G0, G1, and G2).
The Trypanosoma brucei brucei lysis assay is a lysis assay of the parasite using recombinant APOL1 protein variant followed by a fluorescent detection method of viability by the addition of AlamarBlue reagent to the assay well, a general metabolic redox indicator (AlamarBlue assay).
Briefly, the AlamarBlue active compound, the resazurin, a blue, water soluble, non-toxic and cell permeable molecule, which can be followed by absorbance, is reduced by various metabolic pathways into resorufin, a red compound which can be followed by either absorbance or fluorescence. The assay allows the calculation of the percent viability (percent of living Trypanosomes remaining in each well) at the end of a lysis relative to the untreated condition by interpolation of fluorescent values (FLU) on a standard curve with a known amount of seeded trypanosome/well.
Trypanosoma brucei brucei (ATCC, Cat. No. PRA-382) • Lister 427 VSG 221 bloodstream form.
Thaw/Expansion Media (ATCC Medium 2834 Modified HMI-9 Medium)
Equipment • E1-Clip Tip pipette 12 channel adjustable 2-125 μL, Cat. No. 4672070BT • ThermoFisher MultiDrop 384, Cat. No. 5840300 • Multidrop • Agilent Bravo, Cat. No. G5409A • Bravo • SpectraMax M5
Trypanosoma brucei brucei Culture
Step 2, Day 4 • Centrifuge at 800×g for 5 minutes at room temperature. • Resuspend in 1 mL media. • Make a 1:25 fold dilution (10 μL/240 μL media). • Count on a hemocytometer (after adding parasites). • Let sit for 1-2 minutes for the parasites to settle. • Count should be approximately 100 viable motile parasites/16 grid or approximately 25×10^6 parasites/flask. • Passage the parasites by adding 1×10^6 parasites/T75 flask in 20 mL media. • Passage the parasites by adding 2.33×10^6 parasites/T175 flask in 46.6 mL media. • For every T75 flask should make enough for approximately 1.5×384 well assay plates. • For every T175 flask should make enough for approximately 3.8×384 well assay plates.
Step 3. Day 6 • Centrifuge at 800×g for 5 minutes. • Resuspend in 3 mL assay media (No phenol red, no FBS) per 75 starting flask. • Resuspend in 7 mL assay media (No phenol red, no FBS) per 175 flask • Make a 1:25 fold dilution. • Count by hemocytometer. • Every T75 flask set up should have approximately 75×10^6 parasites/flask (verify doubling time=8.7 hrs 1 hr). • Every T175 flask set up should have approximately 175×10^6 parasites/flask (verify doubling time=8.7 hrs±1 hr). • Require 46×10^6 parasites per 384 well plate (at 120,000 parasites per well).
Step 2, Day 2 • Centrifuge at 800×g for 5 minutes at room temperature. • Resuspend in 1 mL media. • Make a 1:25 fold dilution (10 L/240 μL media). • Let sit for 1-2 minutes for the parasites to settle. • Count should be approximately 100 viable motile parasites/16 grid or approximately 8×10^6 parasites per flask. • Passage the parasites by adding 1.25×10^6 parasites per T75 flask in 20 mL media. • For every T75 flask set up should have approximately 1.5×384 well assay plates. • For every T175 flask setup should have approximately 3.8×384 well assay plates. […]

Compound	IC50
O=C1NC[C@@H](O)[C@@H]1NC(=O)C(F)(F)Cc1c(-c2ccc(F)cc2)[nH]c2c(F)cc(F)cc12 [Compound 95, 3-[5,7-difluoro-2-(4-fluorophenyl)-1H-indol-3-yl]-2,2-difluoro-N-[(3S,4R)-4-hydroxy-2-oxo-pyrrolidin-3-yl]propanamide]	< 250 nM
Cc1c(F)c(F)cc2c(CCC(=O)N[C@@H]3C(=O)NC[C@H]3O)c(-c3ccc(F)cc3)[nH]c12 [Compound 98, 3-[5,6-difluoro-2-(4-fluorophenyl)-7-methyl-1H-indol-3-yl]-N-[(3S,4R)-4-hydroxy-2-oxo-pyrrolidin-3-yl]propanamide]	< 250 nM
Cc1c(F)c(F)cc2c(CCC(=O)N[C@@H]3C(=O)NC[C@H]3O)c(-c3ccccc3)[nH]c12 [Compound 99, 3-(5,6-difluoro-7-methyl-2-phenyl-1H-indol-3-yl)-N-[(3S,4R)-4-hydroxy-2-oxo-pyrrolidin-3-yl]propanamide]	< 250 nM
O=C(CCc1c(-c2ccc(F)cc2)[nH]c2c(F)cc(C(F)(F)F)cc12)N[C@@H]1C(=O)NC[C@H]1O [Compound 101, 3-[7-fluoro-2-(4-fluorophenyl)-5-(trifluoromethyl)-1H-indol-3-yl]-N-[(3S,4R)-4-hydroxy-2-oxo-pyrrolidin-3-yl]propanamide]	< 250 nM
O=C(CCc1c(-c2ccc(OC(F)F)cc2)[nH]c2c(F)cc(F)cc12)N[C@@H]1C(=O)NC[C@H]1O [Compound 102]	< 250 nM
O=C(CCc1c(-c2cccc(F)c2)[nH]c2c(F)cc(F)cc12)N[C@@H]1C(=O)NC[C@H]1O [Compound 103]	< 250 nM
O=C(CCc1c(-c2cc(F)cc(F)c2)[nH]c2c(F)cc(F)cc12)N[C@@H]1C(=O)NC[C@H]1O [Compound 104]	< 250 nM
O=C(CCc1c(-c2ccc(F)c(F)c2)[nH]c2c(F)cc(F)cc12)N[C@@H]1C(=O)NC[C@H]1O [Compound 105]	< 250 nM
O=C(CCc1c(-c2ccc(F)cc2)[nH]c2c(OC(F)F)cc(F)cc12)N[C@@H]1C(=O)NC[C@H]1O [Compound 107]	250 to 1000 nM
O=C(CCc1c(-c2ccc(F)cc2)[nH]c2ccc(C(F)(F)F)cc12)N[C@@H]1C(=O)NC[C@H]1O [Compound 108, 3-[2-(4-fluorophenyl)-5-(trifluoromethyl)-1H-indol-3-yl]-N-[(3S,4R)-4-hydroxy-2-oxo-pyrrolidin-3-yl]propanamide]	< 250 nM
O=C(CCc1c(-c2ccccc2)[nH]c2cc(F)ccc12)N[C@@H]1C(=O)NC[C@H]1O [Compound 109, 3-(6-fluoro-2-phenyl-1H-indol-3-yl)-N-[(3S,4R)-4-hydroxy-2-oxo-pyrrolidin-3-yl]propanamide]	< 250 nM
O=C(CCc1c(-c2ccccc2)[nH]c2c(C(F)(F)F)cccc12)N[C@@H]1C(=O)NC[C@H]1O [Compound 112, N-[(3S,4R)-4-hydroxy-2-oxo-pyrrolidin-3-yl]-3-[2-phenyl-7-(trifluoromethyl)-1H-indol-3-yl]propanamide]	> 1000 nM
O=C(CCc1c(-c2ccccc2)[nH]c2cccc(F)c12)N[C@@H]1C(=O)NC[C@H]1O [Compound 114, 3-(4-fluoro-2-phenyl-1H-indol-3-yl)-N-[(3S,4R)-4-hydroxy-2-oxo-pyrrolidin-3-yl]propanamide]	250 to 1000 nM
N#Cc1ccc(-c2[nH]c3ccccc3c2CCC(=O)N[C@@H]2C(=O)NC[C@H]2O)cc1 [Compound 116, 3-[2-(4-cyanophenyl)-1H-indol-3-yl]-N-[(3S,4R)-4-hydroxy-2-oxo-pyrrolidin-3-yl]propanamide]	< 250 nM
O=C(CCc1c(-c2ccc(OC(F)(F)F)cc2)[nH]c2ccccc12)N[C@@H]1C(=O)NC[C@H]1O [Compound 118]	< 250 nM
O=C(CCc1c(-c2ccc(Cl)c(F)c2)[nH]c2ccccc12)N[C@@H]1C(=O)NC[C@H]1O [Compound 120]	< 250 nM
COc1ccc(-c2[nH]c3ccccc3c2CCC(=O)N[C@@H]2C(=O)NC[C@H]2O)cc1 [Compound 121]	< 250 nM
Cc1ccc(-c2[nH]c3ccccc3c2CCC(=O)N[C@@H]2C(=O)NC[C@H]2O)c(F)c1 [Compound 122]	< 250 nM
O=C(CCc1c(-c2ccc(C(F)(F)F)cc2)[nH]c2ccccc12)N[C@@H]1C(=O)NC[C@H]1O [Compound 123]	< 250 nM
Cc1ccc(-c2[nH]c3ccccc3c2CCC(=O)N[C@@H]2C(=O)NC[C@H]2O)cc1 [Compound 124]	< 250 nM
Cc1cc(-c2[nH]c3ccccc3c2CCC(=O)N[C@@H]2C(=O)NC[C@H]2O)ccc1F [Compound 125]	< 250 nM
Cc1ccc(-c2[nH]c3ccccc3c2CCC(=O)N[C@@H]2C(=O)NC[C@H]2O)cc1F [Compound 126]	< 250 nM
O=C(CCc1c(-c2cc(F)cc(F)c2)[nH]c2ccccc12)N[C@@H]1C(=O)NC[C@H]1O [Compound 127, 3-[2-(3,5-difluorophenyl)-1H-indol-3-yl]-N-[(3S,4R)-4-hydroxy-2-oxo-pyrrolidin-3-yl]propanamide]	250 to 1000 nM
O=C(CCc1c(-c2ccc(Cl)cc2)[nH]c2ccccc12)N[C@@H]1C(=O)NC[C@H]1O [Compound 128, 3-[2-(4-chlorophenyl)-1H-indol-3-yl]-N-[(3S,4R)-4-hydroxy-2-oxo-pyrrolidin-3-yl]propanamide]	< 250 nM
O=C(CCc1c(-c2ccc(F)c(F)c2)[nH]c2ccccc12)N[C@@H]1C(=O)NC[C@H]1O [Compound 129, 3-[2-(3,4-difluorophenyl)-1H-indol-3-yl]-N-[(3S,4R)-4-hydroxy-2-oxo-pyrrolidin-3-yl]propanamide]	< 250 nM
O=C(CCc1c(-c2ccc(C(F)F)cc2)[nH]c2ccccc12)N[C@@H]1C(=O)NC[C@H]1O [Compound 131, 3-[2-[4-(difluoromethyl)phenyl]-1H-indol-3-yl]-N-[(3S,4R)-4-hydroxy-2-oxo-pyrrolidin-3-yl]propanamide]	< 250 nM
